Our source for the plasma stability and IC50 values is US9682141B2, “Combination of kinase inhibitors and uses thereof” (INTELLIKINE LLC, priority 2011, dated 2017).

A value given as a limit tells only on which side of the number the result lay.

For data set [1] the following is noted: control or reference compound, 5 μM; cited from earlier work.
The next data set deals with PI3K γ (Homo sapiens (Human), UniProt P48736). The data set is described as follows: PI 3-Kinase (human) HTRF assay, p110γ. It counts as biochemical. The note with it: read-out: PI3K γ IC50. Background: In TR-FRET formats the signal depends on donor and acceptor labels being close together.
The target in the next data set is PI3K α (Homo sapiens (Human), UniProt P42336). Description: PI 3-Kinase (human) HTRF assay, p110α/p85α. It counts as biochemical.
In another data set the target is PI3K δ (Homo sapiens (Human), UniProt O00329). The data set is described as follows: PI 3-Kinase (human) HTRF assay, p110δ/p85α. In kind it is biochemical.
Another data set concerns the target mTORC (Homo sapiens (Human), UniProt P42345). Description: mTOR inhibition assay (radiometric or LanthaScreen TR-FRET). In kind it is biochemical.
The next data set concerns the target PI3K β (Homo sapiens (Human), UniProt P42338). The data set is described as follows: PI 3-Kinase (human) HTRF assay, p110β/p85α. In kind it is biochemical.

Chain of PI3K δ (O00329 whole entry): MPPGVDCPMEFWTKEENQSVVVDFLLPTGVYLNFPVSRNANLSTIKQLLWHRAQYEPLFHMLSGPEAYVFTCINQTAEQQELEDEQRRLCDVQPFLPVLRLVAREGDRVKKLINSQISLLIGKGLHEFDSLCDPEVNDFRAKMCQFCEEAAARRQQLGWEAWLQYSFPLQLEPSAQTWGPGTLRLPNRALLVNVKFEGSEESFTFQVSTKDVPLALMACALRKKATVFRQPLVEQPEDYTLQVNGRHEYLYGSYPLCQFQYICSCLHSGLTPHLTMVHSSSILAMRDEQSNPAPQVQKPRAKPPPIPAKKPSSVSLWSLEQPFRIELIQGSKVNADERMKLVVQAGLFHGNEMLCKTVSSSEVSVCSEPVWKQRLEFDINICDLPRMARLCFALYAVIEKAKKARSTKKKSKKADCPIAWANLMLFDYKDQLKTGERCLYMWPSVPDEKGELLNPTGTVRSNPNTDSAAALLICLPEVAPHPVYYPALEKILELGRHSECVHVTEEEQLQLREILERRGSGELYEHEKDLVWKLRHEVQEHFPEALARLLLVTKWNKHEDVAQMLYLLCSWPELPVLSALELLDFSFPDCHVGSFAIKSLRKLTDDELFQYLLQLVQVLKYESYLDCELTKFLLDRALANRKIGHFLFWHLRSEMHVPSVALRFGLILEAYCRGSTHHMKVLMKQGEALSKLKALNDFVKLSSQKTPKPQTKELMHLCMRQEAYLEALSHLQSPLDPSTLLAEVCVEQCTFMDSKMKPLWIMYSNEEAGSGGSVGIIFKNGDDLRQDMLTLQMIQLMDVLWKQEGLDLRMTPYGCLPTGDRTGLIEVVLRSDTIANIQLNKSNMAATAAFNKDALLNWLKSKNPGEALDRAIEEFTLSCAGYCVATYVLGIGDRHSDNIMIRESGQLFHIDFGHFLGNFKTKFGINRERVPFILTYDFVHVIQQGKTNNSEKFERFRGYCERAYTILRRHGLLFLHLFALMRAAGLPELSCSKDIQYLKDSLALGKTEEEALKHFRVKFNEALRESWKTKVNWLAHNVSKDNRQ
Chain of PI3K δ (P27986 whole entry partner): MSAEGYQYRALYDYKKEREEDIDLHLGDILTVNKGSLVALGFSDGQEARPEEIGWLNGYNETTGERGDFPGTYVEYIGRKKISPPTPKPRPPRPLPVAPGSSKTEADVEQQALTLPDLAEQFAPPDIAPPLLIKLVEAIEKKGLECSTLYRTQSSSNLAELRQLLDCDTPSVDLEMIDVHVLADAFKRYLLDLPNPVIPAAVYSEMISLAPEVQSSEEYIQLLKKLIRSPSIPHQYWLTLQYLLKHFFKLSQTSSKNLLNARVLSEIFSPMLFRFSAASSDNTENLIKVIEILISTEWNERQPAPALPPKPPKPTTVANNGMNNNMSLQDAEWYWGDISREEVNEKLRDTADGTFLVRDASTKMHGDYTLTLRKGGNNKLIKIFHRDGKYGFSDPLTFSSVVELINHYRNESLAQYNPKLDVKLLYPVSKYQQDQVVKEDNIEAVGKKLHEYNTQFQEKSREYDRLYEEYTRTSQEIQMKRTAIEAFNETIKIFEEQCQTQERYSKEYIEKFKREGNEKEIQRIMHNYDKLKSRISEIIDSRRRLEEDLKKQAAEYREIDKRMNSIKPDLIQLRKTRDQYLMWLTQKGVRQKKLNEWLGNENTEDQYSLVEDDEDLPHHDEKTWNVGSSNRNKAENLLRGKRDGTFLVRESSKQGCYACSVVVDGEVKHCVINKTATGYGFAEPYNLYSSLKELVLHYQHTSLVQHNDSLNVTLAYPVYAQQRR
Chain of PI3K α (P42336 whole entry): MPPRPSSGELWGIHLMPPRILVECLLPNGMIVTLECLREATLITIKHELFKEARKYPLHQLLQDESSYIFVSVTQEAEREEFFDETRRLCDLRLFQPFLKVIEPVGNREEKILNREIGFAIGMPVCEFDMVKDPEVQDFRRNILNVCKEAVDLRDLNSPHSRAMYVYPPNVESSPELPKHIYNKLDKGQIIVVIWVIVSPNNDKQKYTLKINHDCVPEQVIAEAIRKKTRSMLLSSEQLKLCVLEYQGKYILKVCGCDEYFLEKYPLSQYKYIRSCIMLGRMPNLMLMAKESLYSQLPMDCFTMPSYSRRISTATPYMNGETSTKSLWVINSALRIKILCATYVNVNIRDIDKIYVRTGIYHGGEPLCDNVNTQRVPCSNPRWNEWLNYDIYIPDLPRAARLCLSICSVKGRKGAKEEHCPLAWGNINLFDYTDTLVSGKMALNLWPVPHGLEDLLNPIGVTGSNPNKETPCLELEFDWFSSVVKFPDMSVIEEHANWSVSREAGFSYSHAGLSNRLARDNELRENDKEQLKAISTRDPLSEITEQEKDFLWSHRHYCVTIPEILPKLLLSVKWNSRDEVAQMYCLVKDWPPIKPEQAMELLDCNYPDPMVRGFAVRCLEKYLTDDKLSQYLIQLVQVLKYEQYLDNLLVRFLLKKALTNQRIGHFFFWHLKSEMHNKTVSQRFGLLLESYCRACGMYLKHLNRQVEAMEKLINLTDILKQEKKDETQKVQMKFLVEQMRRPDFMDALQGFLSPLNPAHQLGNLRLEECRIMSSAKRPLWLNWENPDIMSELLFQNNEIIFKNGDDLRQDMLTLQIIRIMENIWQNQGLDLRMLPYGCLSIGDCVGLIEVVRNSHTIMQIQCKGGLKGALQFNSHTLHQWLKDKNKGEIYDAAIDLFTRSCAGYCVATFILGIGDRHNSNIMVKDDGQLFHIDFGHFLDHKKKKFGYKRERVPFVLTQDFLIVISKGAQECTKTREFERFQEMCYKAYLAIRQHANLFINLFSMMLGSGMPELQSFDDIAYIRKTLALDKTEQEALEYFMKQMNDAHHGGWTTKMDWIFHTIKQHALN
Chain of PI3K α (P27986 whole entry partner): as the sequence (P27986 whole entry partner) above
Chain of PI3K γ (P48736 whole entry): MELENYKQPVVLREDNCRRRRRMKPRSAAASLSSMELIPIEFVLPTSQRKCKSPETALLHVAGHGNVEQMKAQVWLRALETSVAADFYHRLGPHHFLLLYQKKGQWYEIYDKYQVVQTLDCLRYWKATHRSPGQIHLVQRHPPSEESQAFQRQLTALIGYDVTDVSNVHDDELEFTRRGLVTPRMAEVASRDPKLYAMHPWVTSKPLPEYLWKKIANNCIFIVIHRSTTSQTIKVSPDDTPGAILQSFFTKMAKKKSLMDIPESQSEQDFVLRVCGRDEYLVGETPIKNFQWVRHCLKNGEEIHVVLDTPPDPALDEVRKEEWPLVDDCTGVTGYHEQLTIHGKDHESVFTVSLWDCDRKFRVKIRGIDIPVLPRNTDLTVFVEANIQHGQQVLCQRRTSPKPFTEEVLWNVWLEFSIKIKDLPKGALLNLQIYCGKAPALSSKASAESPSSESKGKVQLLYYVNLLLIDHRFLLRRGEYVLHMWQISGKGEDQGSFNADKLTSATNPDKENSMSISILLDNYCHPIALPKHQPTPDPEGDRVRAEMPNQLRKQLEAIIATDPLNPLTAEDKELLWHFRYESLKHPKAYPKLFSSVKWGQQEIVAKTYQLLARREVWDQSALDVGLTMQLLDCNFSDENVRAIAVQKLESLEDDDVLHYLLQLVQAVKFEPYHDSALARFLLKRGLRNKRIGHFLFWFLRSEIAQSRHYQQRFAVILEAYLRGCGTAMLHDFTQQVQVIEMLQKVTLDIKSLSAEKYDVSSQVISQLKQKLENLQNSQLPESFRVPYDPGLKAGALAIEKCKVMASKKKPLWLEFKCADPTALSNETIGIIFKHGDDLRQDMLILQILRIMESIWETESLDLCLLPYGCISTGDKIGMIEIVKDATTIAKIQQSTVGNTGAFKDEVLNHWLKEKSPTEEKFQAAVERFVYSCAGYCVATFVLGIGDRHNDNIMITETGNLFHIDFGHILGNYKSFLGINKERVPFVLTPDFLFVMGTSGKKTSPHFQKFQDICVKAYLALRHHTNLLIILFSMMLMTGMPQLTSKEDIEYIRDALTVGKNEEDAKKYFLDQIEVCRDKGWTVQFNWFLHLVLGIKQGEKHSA
Chain of PI3K β (P42338 whole entry): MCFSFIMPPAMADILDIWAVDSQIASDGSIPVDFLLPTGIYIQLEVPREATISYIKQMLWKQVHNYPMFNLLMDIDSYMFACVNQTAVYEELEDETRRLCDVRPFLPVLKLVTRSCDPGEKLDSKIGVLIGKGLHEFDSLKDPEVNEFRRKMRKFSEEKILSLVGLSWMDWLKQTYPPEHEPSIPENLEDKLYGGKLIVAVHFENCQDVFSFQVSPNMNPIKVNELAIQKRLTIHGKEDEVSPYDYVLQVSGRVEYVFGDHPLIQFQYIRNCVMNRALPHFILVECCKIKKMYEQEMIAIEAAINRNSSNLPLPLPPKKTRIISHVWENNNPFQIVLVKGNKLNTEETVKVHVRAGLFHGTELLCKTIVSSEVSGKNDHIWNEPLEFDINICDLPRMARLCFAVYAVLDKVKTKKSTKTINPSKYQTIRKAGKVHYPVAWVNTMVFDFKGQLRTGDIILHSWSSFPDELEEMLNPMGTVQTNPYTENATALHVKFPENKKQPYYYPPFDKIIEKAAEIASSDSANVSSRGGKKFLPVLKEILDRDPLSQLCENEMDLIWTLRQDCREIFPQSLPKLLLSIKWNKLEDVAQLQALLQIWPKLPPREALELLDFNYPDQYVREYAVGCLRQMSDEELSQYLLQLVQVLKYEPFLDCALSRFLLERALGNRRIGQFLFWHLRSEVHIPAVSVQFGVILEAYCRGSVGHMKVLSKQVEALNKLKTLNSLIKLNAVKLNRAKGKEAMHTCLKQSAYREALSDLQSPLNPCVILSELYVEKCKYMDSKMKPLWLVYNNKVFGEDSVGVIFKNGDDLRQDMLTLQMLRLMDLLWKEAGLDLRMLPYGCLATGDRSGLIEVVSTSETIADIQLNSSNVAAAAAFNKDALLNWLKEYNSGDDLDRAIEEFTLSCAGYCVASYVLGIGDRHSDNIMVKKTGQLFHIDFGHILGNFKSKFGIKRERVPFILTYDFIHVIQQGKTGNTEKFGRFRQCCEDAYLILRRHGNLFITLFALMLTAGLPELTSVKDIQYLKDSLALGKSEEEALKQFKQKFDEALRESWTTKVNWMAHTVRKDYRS
Chain of PI3K β (P27986 whole entry partner): as the sequence (P27986 whole entry partner) above
Procedure for mTORC: The compounds described herein can be tested against recombinant mTOR (Invitrogen) in an assay containing 50 mM HEPES, pH 7.5, 1 mM EGTA, 10 mM MgCl2, 2.5 mM, 0.01% Tween, 10 μM ATP (2.5 μCi of μ-32P-ATP), and 3 μg/mL BSA. Rat recombinant PHAS-1/4EBP1 (Calbiochem; 2 mg/mL) is used as a substrate. Reactions are terminated by spotting onto nitrocellulose, which is washed with 1M NaCl/1% phosphoric acid (approximately 6 times, 5-10 minutes each). Sheets are dried and the transferred radioactivity quantitated by phosphorimaging.
For instance, one can use Invitrogen's LanthaScreen™ Kinase assay to test the inhibitors of mTOR disclosed herein. This assay is a time resolved FRET platform that measures the phosphorylation of GFP labeled 4EBP1 by mTOR kinase. The kinase reaction is performed in a white 384 well microtitre plate. The total reaction volume is 20 ul per well and the reaction buffer composition is 50 mM HEPES pH7.5, 0.01% Polysorbate 20, 1 mM EGTA, 10 mM MnCl2, and 2 mM DTT. In the first step, each well receives 2 ul of test compound in 20% dimethylsulphoxide resulting in a 2% DMSO final concentration. Next, 8 ul of mTOR diluted in reaction buffer is added per well for a 60 ng/ml final concentration. To start the reaction, 10 ul of an ATP/GFP-4EBP1 mixture (diluted in reaction buffer) is added per well for a final concentration of 10 μM ATP and 0.5 μM GFP-4EBP1. The plate is sealed and incubated for 1 hour at room temperature. […] The plate is sealed, incubated for 1 hour at room temperature, and then read on a plate reader set up for LanthaScreen™ TR-FRET. Data is analyzed and IC50s are generated using GraphPad Prism 5.

Turning to `CCCOc1cc(N)ccc1C(=O)OCCN(CC)CC` [propoxycaine], the plasma stability entry in data set [1] is reported as “low plasma stability”.

Regarding `CC(C)[N+](C)(CCOC(=O)C1c2ccccc2Oc2ccccc21)C(C)C` [propantheline], the plasma stability entry in data set [1] is listed as “intermediate plasma stability”.

One may read the IC50 as the concentration needed to halve the response being measured. Take `C[C@@H]1CN(C2CN(c3cnc4ccc(-c5ccc6oc(N)nc6c5)nc4c3)C2)CCN1`: the IC50 was < 1000 nM on PI3K γ; < 100 nM against PI3K α; < 1000 nM against PI3K δ; > 10000 nM on mTORC; < 10000 nM against PI3K β.

Consider `Nc1nc2cc(-c3ccc4ncc(N5CC(N6CCN(CCO)CC6)C5)cc4n3)ccc2o1`, for which the 50% inhibitory concentration (IC50) at PI3K γ was < 1000 nM; at PI3K α it was < 100 nM; against PI3K δ, < 1000 nM; on mTORC, > 10000 nM; against PI3K β, < 10000 nM.

As to `Nc1nc2cc(-c3ccc4ncc(N5CCOCC5)nc4c3)ccc2o1`, the IC50 is < 100 nM at PI3K γ; < 100 nM on PI3K α; > 10000 nM at PI3K δ; < 10000 nM against mTORC; < 1000 nM against PI3K β.

Turning to `CCN1CCN(C2CN(c3cnc4ccc(-c5ccc6oc(N)nc6c5)nc4n3)C2)CC1`, the IC50 was < 10000 nM at PI3K γ; < 100 nM against PI3K α; < 10000 nM against PI3K δ; < 10000 nM against mTORC; < 10000 nM against PI3K β.

In the case of `Nc1nc2cc(-c3ccc4ncc(N5CC(N6CCN(CC7CC7)CC6)C5)cc4n3)ccc2o1`, the IC50 is < 10000 nM on PI3K γ; < 100 nM against PI3K α; < 1000 nM on PI3K δ; > 10000 nM on mTORC; < 10000 nM against PI3K β.

For the molecule `Nc1nc2cc(-c3ccc4ncc(N5CC(C(=O)N6CCOCC6)C5)nc4c3)ccc2o1` [drawing 359], the IC50 on PI3K γ was < 1000 nM; on PI3K α, < 100 nM; against PI3K δ, < 1000 nM; on mTORC, < 10000 nM; at PI3K β, < 1000 nM.

As for `CN1CC2CN(c3cnc4ccc(-c5ccc6oc(N)nc6c5)nc4n3)CC2C1` (centres unmarked), the 50% inhibitory concentration (IC50) was < 10000 nM on PI3K γ; < 100 nM on PI3K α; < 1000 nM at PI3K δ; > 10000 nM against mTORC; < 1000 nM against PI3K β.

As to `CN(C)CC(=O)N1CCN(c2cnc3ccc(-c4ccc5oc(N)nc5c4)cc3n2)CC1` [drawing 329], the concentration for half-maximal inhibition (IC50) at PI3K γ was < 1000 nM; at PI3K α, < 100 nM; on PI3K δ, < 1000 nM; against mTORC it was > 10000 nM; against PI3K β, < 1000 nM.

Take `Nc1nc2cc(-c3ccc4ncc(-c5cccnc5)nc4c3)ccc2o1`: the IC50 at PI3K γ is < 1000 nM; at PI3K α, < 100 nM; at PI3K δ, > 10000 nM; against mTORC, < 10000 nM; at PI3K β, > 10000 nM.
